Results from patent US11299485B2, “Thiophene derivative and use thereof” (FUJIMOTO CO., LTD., priority 2018, dated 2022).

How the values were obtained:
Type in all cases: cell-based
[1] = system: MM.1S cells; assay: Human myeloma cell line MM.1S proliferation suppression test; settings: MM1.S, 72 h, compound 10 μM, 3 days, WST-1 or WST-8, read-out: cell survival rate (% of control) MM.1S
Protocol: Example 51: Human Myeloma Cell Line MM.1S Proliferation Suppression Test
MM.1S cells (ATCC, CRL-2974) were suspended in 10% fetal calf serum (Thermo Fisher Scientific)-containing RPMI1640 medium (ATCC, hereinafter abbreviated as medium B), and diluted as appropriate with 0.4% trypan blue solution (Sigma-Aldrich Co. LLC.). The number of viable cells was counted with a hemocytometer (ERMA INC.). It was diluted with medium B such that the value obtained was 2×10^5 cells/mL. On the other hand, 50 μL of a solution obtained by diluting 4 mM DMSO solution of the test compound 200-fold with medium B was added to each well of a Falcon 96-well flat bottom plate (Corning Incorporated), and the above-mentioned cell suspension was dispensed at 50 μL/well (final concentration of test compound 10 μM). 50 μL of a solution obtained by diluting DMSO 200-fold with medium B was added to the control well. After culturing at 37° C. in a 5% CO2 stream for 3 days, the cell proliferation activity was measured using WST-1 (DOJINDO LABORATORIES) or WST-8 Kit (KISHIDA CHEMICAL Co., Ltd.) and according to each instruction manual attached thereto.

[2] = system: Pfeiffer cells; assay: Human diffuse large B-cell lymphoma cell line Pfeiffer proliferation suppression test; settings: 144 h, compound 10 μM, 3 days + re-plating with compound 3 days, WST-8, read-out: cell survival rate (% of control) Pfeiffer
From the text: Example 52: Human Diffuse Large B-Cell Lymphoma Cell Line Pfeiffer Proliferation Suppression Test
(§1) Pfeiffer cells (ATCC, CRL-2632) were suspended in medium B, and diluted as appropriate with 0.4% trypan blue solution (Sigma-Aldrich Co. LLC.). The number of viable cells was counted with a hemocytometer (Funakoshi Co., Ltd.). A cell suspension obtained by diluting with medium B such that the value obtained was 1.3×10^5 cells/mL was dispensed into a Falcon 96 well flat bottom plate (Corning Incorporated) at 75 μL/well, and culture was started at 37° C. under 5% CO2 stream. The next day, a solution obtained by diluting 4 mM DMSO solution of the test compound 100-fold with medium B was added by 25 μL to each well (final concentration of test compound 10 μM). 25 μL of a solution obtained by diluting DMSO 100-fold with medium B was added to the control well. After culturing at 37° C. in a 5% CO2 stream for 3 days, the cell culture medium was uniformly suspended with a multi channel pipette, 14 μL per well was transferred into another new Falcon 96 well flat bottom plate. A solution obtained by diluting 4 mM DMSO solution of the same test compound as the first time 400-fold with medium B was added by 86 μL to a total amount of 100 μL (final concentration of test compound 10 μM). After culturing at 37° C. in a 5% CO2 stream for 3 days, the cell proliferation activity was measured according to the instruction manual attached to WST-8 Kit (KISHIDA CHEMICAL Co., Ltd.).

[3] = system: REC-1 cells; assay: Human mantle cell lymphoma cell line REC-1 proliferation suppression test; settings: Rec1, 72 h, compound 10 μM, 3 days, WST-8, read-out: cell survival rate (% of control) REC-1
Protocol: Example 53: Human Mantle Cell Lymphoma Cell Line REC-1 Proliferation Suppression Test
as §1, with “REC-1” for “Pfeiffer”, “CRL-3004)” for “CRL-2632)”, “cell” for “cell culture medium was uniformly suspended with a multi channel pipette, 14 μL per well was transferred into another new Falcon 96 well flat bottom plate. A solution obtained by diluting 4 mM DMSO solution of the same test compound as the first time 400-fold with medium B was added by 86 μL to a total amount of 100 μL (final concentration of test compound 10 μM). After culturing at 37° C. in a 5% CO2 stream for 3 days, the cell”

[4] = system: human peripheral blood mononuclear cells (PBMC); assay: Cytotoxicity test using human peripheral blood mononuclear cells (PBMC); settings: compound 10 μg/mL, LPS, 24 hr, WST-1 or WST-8
Protocol: Example 56: Cytotoxicity Test Using Human Peripheral Blood Mononuclear Cells (PBMC)
Peripheral blood of a healthy adult was collected in a Venoject II vacuum blood collection tube (Terumo, containing EDTA/2Na), and then diluted two-fold with an equal volume of OTSUKA NORMAL SALINE (Otsuka Pharmaceutical Co., Ltd.). The diluted blood was mixed with Lymphoprep (AXIS-SHIELD) in half the volume of the diluted blood, dispensed into a 15 mL conical tube, and centrifuged at room temperature for 20 min (2,100 rpm). The mononuclear cells accumulated at the interface between Lymphoprep and plasma was transferred to a 50 mL conical tube, diluted with OTSUKA NORMAL SALINE, and the mononuclear cells suspension was centrifuged at room temperature for 10 min (1,150 rpm) and then the supernatant was removed. The mononuclear cells fraction obtained as a precipitate was suspended in an appropriate amount of medium A, and diluted as appropriate with 0.4% trypan blue solution (Sigma-Aldrich Co. LLC.). The number of viable cells was counted with a hemocytometer (ERMA INC.). It was diluted with medium A such that the value obtained was 5×10^5 cells/mL. On the other hand, 37.5 μL of medium A, 2.5 μL of 0.4 mg/mL test compound solution (DMSO solution 10-fold diluted with medium A), and 10 μL of 10 μg/mL lipopolysaccharide (Sigma-Aldrich Co. LLC.) solution (diluted with medium A) were each added in advance to the same well of a Falcon 96-well flat bottom plate (Corning Incorporated), and the above-mentioned cell suspension was dispensed at 50 μL/well (final concentration of test compound 10 μg/mL). 2.5 μL of DMSO diluted 10-fold with medium A was added to the control well instead of the compound solution. After culturing at 37° C. in a 5% CO2 stream for 24 hr, the cell survival rate was measured using WST-1 (DOJINDO LABORATORIES) or WST-8 kit (KISHIDA CHEMICAL Co., Ltd.) and according to each instruction manual attached thereto.

Compound | viability at 10 µM [1] [%] | viability at 10 µM [2] [%] | viability at 10 µM [3] [%] | cell survival rate (% of control) PBMC [4]
O=C1CCC(n2cc(-c3cscc3Br)nn2)C(=O)N1 (centres unmarked) [compound 1, 3-[4-(4-bromothiophen-3-yl)-1H-1,2,3-triazol-1-yl]piperidine-2,6-dione] | 33 | 89 | 43 | 106 % of control
O=C1CCC(n2cc(-c3ccsc3)nn2)C(=O)N1 (centres unmarked) [compound 2, 3-[4-(thiophen-3-yl)-1H-1,2,3-triazol-1-yl]piperidine-2,6-dione] | 50 | 80 | 36 | 100 % of control
O=C1CCC(n2cc(-c3cccs3)nn2)C(=O)N1 (centres unmarked) [compound 3, 3-[4-(thiophen-2-yl)-1H-1,2,3-triazol-1-yl]piperidine-2,6-dione] | 59 | 96 | 65 | 89 % of control
O=C1CCC(n2nnc(-c3ccsc3)c2Cl)C(=O)N1 (centres unmarked) [compound 4, 3-[5-chloro-4-(thiophen-3-yl)-1H-1,2,3-triazol-1-yl]piperidine-2,6-dione] | 87 | 98 | 93 | 112 % of control
Cc1ccc(-c2cn(C3CCC(=O)NC3=O)nn2)s1 (centres unmarked) [compound 5, 3-[4-(5-methylthiophen-2-yl)-1H-1,2,3-triazol-1-yl]piperidine-2,6-dione] | 66 | 98 | 53 | 97 % of control
Cc1cc(-c2cn(C3CCC(=O)NC3=O)nn2)cs1 (centres unmarked) [compound 6, 3-[4-(5-methylthiophen-3-yl)-1H-1,2,3-triazol-1-yl]piperidine-2,6-dione] | 63 | 100 | 52 | 96 % of control
Cc1cscc1-c1cn(C2CCC(=O)NC2=O)nn1 (centres unmarked) [compound 7, 3-[4-(4-methylthiophen-3-yl)-1H-1,2,3-triazol-1-yl]piperidine-2,6-dione] | 57 | 101 | 44 | 101 % of control
CC(=O)c1ccc(-c2cn(C3CCC(=O)NC3=O)nn2)s1 (centres unmarked) [compound 8, 3-[4-(5-acetylthiophen-2-yl)-1H-1,2,3-triazol-1-yl]piperidine-2,6-dione] | 94 | 107 | 99 | 97 % of control
O=C1CCC(n2cc(-c3csc(CO)c3)nn2)C(=O)N1 (centres unmarked) [compound 9, 3-{4-[5-(hydroxymethyl)thiophen-3-yl]-1H-1,2,3-triazol-1-yl}piperidine-2,6-dione] | 77 | 100 | 70 | 129 % of control
O=C1CCC(n2cc(-c3scc4c3OCCO4)nn2)C(=O)N1 (centres unmarked) [compound 10, 3-[4-(2,3-dihydrothieno[3,4-b][1,4]dioxin-5-yl)-1H-1,2,3-triazol-1-yl]piperidine-2,6-dione] | 78 | 113 | 57 | 97 % of control
O=C1CCC(n2cc(-c3ccc(Cl)s3)nn2)C(=O)N1 (centres unmarked) [compound 11, 3-[4-(5-chlorothiophen-2-yl)-1H-1,2,3-triazol-1-yl]piperidine-2,6-dione] | 63 | 114 | 56 | 115 % of control
O=C1CCC(n2cc(-c3ccc(Br)s3)nn2)C(=O)N1 (centres unmarked) [compound 12, 3-[4-(5-bromothiophen-2-yl)-1H-1,2,3-triazol-1-yl]piperidine-2,6-dione] | 74 | 94 | 77 | 101 % of control
O=C1CCC(n2cc(-c3cc(Br)sc3Br)nn2)C(=O)N1 (centres unmarked) [compound 13, 3-[4-(2,5-dibromothiophen-3-yl)-1H-1,2,3-triazol-1-yl]piperidine-2,6-dione] | 79 | 100 | 100 | 132 % of control
O=C1CCC(n2cc(-c3cscc3Cl)nn2)C(=O)N1 (centres unmarked) [compound 14, 3-[4-(4-chlorothiophen-3-yl)-1H-1,2,3-triazol-1-yl]piperidine-2,6-dione] | 43 | 74 | 34 | 113 % of control
COc1c(-c2cn(C3CCC(=O)NC3=O)nn2)csc1C (centres unmarked) [compound 15, 3-[4-(4-methoxy-5-methylthiophen-3-yl)-1H-1,2,3-triazol-1-yl]piperidine-2,6-dione] | 55 | 87 | 36 | 105 % of control
COC(=O)c1scc(-c2cn(C3CCC(=O)NC3=O)nn2)c1OC (centres unmarked) [compound 16, methyl 4-[1-(2,6-dioxopiperidin-3-yl)-1H-1,2,3-triazol-4-yl]-3-methoxythiophene-2-carboxylate] | 85 | 98 | 85 | 90 % of control
CCOc1cscc1-c1cn(C2CCC(=O)NC2=O)nn1 (centres unmarked) [compound 17, 3-[4-(4-ethoxythiophen-3-yl)-1H-1,2,3-triazol-1-yl]piperidine-2,6-dione] | 32 | 72 | 23 | 49 % of control
